# Assay results published in patent US6919348B2, “Therapeutic 1,2,3,6-tetrahydropyrimidine-2-one compositions and methods therewith” (priority 2002, dated 2005).
# Read-outs that look alike come from different tables or passages of the source.
# What was measured:
# [1] = system: shaking behavior in the rat; conditions: cited from earlier work
# [2] = system: surfaces of the human body; test: Irritation upon contact with the surfaces of the human body; type: in vivo
# [3] = system: anorectal area of subject with inflamed hemorrhoids; test: Example 2: anorectal administration in inflamed hemorrhoids; type: in vivo, human; conditions: icilin 20 mg/ml in propylene glycol admixed with saline laxative, 2 ml emulsion instilled into rectum
# Description: A subject with inflamed hemorrhoids self-administered a commercial suppository, shaped as a 1.5-inch bullet, containing 25 mg of hydrocortisone. The suppository was coated with 5 mg of icilin and 5 mg of WS-23, a menthol analog. Cooling sensations were felt within 5 minutes in the anorectal area extending to the scrotum. Relief of discomfort and itch in the anorectal area lasted for longer than 3 hours. In a similar experiment, icilin, dissolved 20 mg/ml in propylene glycol was admixed with a isotonic sodium chloride solution laxative (containing monobasic sodium phosphate and dibasic sodium phosphate salts), and 2 ml of the emulsion was instilled into the rectum. Again, cooling sensations with relief of itch and discomfort were obtained for 2 hours.
# [4] = system: abrasion on finger; test: Example 3: application to abrasion wound on finger; type: in vivo, human; conditions: applied directly to abrasion; icilin 0.8 mg
# Description: A subject with an abrasion on their finger (caused by friction) of about 1 square centimeter received 0.8 mg of icilin applied directly to the wound with a swab stick.
# [5] = system: nasal cavity of subject with hay fever; test: Examples 5 and 6: nasal administration in subject with hay fever; type: in vivo, human; conditions: for effect on nasal discharge, urge to sneeze, itchy eyelids: inhaled via the nose, hay fever subject
# Description: A subject, suffering from hay fever (in this case, seasonal allergy to grass pollen) stopped taking antihistamines for 24 hours and inhaled via the nose 0.5 mg or 2 mg (on 2 separate occasions) of icilin in powder form.
# Icilin, dissolved in propylene glycol, was added to a commercial preparation of an anti-allergy nasal spray containing fluticasone to attain a concentration of about 10 mg icilin/ml solution.
# [6] = system: mouth, throat and upper alimentary tract; test: Example 7: chewing gum; type: in vivo, human
# Description: Two mg of icilin was spread between two wafers of a fruit-flavored chewing gum and chewed for 5 minutes by a subject. […] But after 12 minutes general sensations of coolness were felt in the thoracic internal structures behind the sternum, in the epigastric area. These cooling effects lasted for about 45 minutes. By contrast, the chewing of mentholated gum or mentholated candy, produced after an initial harsh taste, strong cooling of the mouth and throat that lasted only about 10 minutes.
# This experiment illustrates important pharmacokinetic differences between icilin and menthol. The effects of mentholated gum are immediate and localized to the mouth and throat. […] Further protection of the icilin by standard encapsulation technology will allow it to reach the distal portions of the gastrointestinal tract such as the lower ileum and colon where it may exert its pharmacological effects as a cold receptor agonist.
# [7] = target: TRP(M8) receptor (Rattus norvegicus, UniProt Q8R455); conditions: cloned and transfected TRP(M8) receptor; McKemy et al. 2002; cited from earlier work
# Chain of TRP(M8) receptor (Q8R455 whole entry): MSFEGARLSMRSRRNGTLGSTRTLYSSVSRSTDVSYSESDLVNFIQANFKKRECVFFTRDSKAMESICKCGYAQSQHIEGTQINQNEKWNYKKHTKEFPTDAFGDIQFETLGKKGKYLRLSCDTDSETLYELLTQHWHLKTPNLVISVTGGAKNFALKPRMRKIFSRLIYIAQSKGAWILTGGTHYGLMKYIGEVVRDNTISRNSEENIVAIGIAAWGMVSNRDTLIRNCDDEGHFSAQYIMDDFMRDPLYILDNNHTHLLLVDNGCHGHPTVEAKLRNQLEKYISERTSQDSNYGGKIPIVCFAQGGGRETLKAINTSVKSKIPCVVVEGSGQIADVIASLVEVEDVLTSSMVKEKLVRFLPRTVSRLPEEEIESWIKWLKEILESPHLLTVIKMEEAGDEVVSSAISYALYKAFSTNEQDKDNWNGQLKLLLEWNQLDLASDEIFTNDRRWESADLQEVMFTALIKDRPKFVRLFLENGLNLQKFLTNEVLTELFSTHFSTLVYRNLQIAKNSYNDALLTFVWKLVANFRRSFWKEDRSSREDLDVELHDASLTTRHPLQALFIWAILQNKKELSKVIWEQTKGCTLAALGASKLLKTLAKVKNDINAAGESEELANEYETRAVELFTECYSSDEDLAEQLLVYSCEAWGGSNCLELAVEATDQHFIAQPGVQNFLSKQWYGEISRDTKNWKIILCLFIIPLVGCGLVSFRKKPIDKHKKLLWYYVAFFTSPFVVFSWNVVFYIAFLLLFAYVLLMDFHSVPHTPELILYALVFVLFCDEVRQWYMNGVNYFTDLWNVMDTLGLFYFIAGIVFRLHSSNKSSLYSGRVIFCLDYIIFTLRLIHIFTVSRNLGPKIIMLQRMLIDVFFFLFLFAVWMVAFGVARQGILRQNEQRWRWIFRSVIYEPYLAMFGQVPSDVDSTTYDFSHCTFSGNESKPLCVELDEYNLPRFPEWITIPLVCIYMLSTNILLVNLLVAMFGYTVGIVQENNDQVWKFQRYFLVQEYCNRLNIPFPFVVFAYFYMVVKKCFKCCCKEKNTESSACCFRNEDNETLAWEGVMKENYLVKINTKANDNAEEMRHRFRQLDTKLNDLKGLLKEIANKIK
# [8] = system: receptors for cold; conditions: cited from earlier work
# [9] = system: lower eyelid; test: Example 4: application to lower eyelid; type: in vivo, human; conditions: for duration of cooling/refreshing effect: icilin 10 mg/ml solution
# Description: A small quantity of a 10 mg/ml solution of icilin dissolved in propylene glycol was applied with a cotton swab stick to the lower eyelid of a subject. […] This effect lasted for about 45 minutes. […] The eyelids smarted from the harsh irritant actions of menthol. The individual blinked and the eyes were momentarily closed with a small degree of lachrymation. But, after about 1 minute, this discomfort dissipated and the cooling sensations of menthol were felt on the eyelid. The sensations were refreshing and lasted for about 15 minutes and accompanied by a minty odor.
# By contrast, menthol cannot be used in eye drops because of its irritant actions.
# [10] = Stability at room temperature; type: physicochemical
# Description: (§1) Icilin is a lemon yellow crystalline powder with a molecular weight of 311 Daltons and a melting point of 229 to 231° C. […] Thus, icilin would be considered as a lipophilic, hydrophobic compound that is not easily miscible with aqueous systems. Analogs of icilin, for example, with acetyoxy, ethyl, fluoro, or trifluoromethyl substitutions, retain similar chemical and physical properties and are included within the scope of this invention.
# [11] = system: rats; conditions: cited from earlier work
# [12] = Solubility in solvents; type: physicochemical
# Description: as §1
# Menthol, by contrast, is a white crystal with a molecular weight of 156 Daltons and a melting point of 41 to 43° C., a temperature slightly above body temperature. […] Some analogs of menthol, e.g. (+)-neomenthol are colorless liquids at room temperature.
# [13] = system: skin or mucous membranes; test: Duration of cooling effect after application to skin or mucous membranes; type: in vivo, human; conditions: applied to the skin or mucous membranes, regardless of dose
# Excerpt: The physico-chemical differences between icilin and menthol confer unique advantages to icilin for manipulating sensory nerve discharges in certain defined clinical situations, as described hereinafter. The first advantage is the site of delivery: menthol cannot be delivered to the eyelids and its environs, the nasal membranes, or the mucous membranes of the anogenital region at high concentrations because it is pungent, stings and irritates. Icilin, on the other hand, can be administered to these sites because it is non-irritating. A second major advantage of icilin is its duration of action. Icilin's actions can be localized at its site of application for a prolonged period because of its lipophilic characteristics and because it can be administered as a powder or dispersed (either in solid form or solubilized) as an emulsion. By contrast, menthol is volatile and rapidly re-distributes and metabolizes in the body so its duration of action is relatively short. For example, icilin applied to nasal membranes can produce refreshing sensations for up to 3 hours.
# In practicing the present invention, the topical administration of icilin relieves itching, especially when given in combination with a menthol analog. […]
smiles,measurement,setting,value
"O=C1NC(c2cccc([N+](=O)[O-])c2)=CCN1c1ccccc1O [icilin, 1-[2-hydroxy]-4-[3-nitrophenyl]-1,2,3,6-tetrahydropyridimine-2-one]",potency relative to menthol on shaking behavior,"[1]; rat, molar basis",400 times
same,behavioral syndrome elicited,"[1]; rats and monkeys, accompanied by hyperthermia, hyperactivity and ptosis",wet dog shake behavior
same,irritation upon contact with body surfaces,[2]; powder,non-irritating
same,duration of cooling sensations with relief of itch and discomfort,[3],2 h
same,effect on pain and coldness at wound site,[4],pain was lessened
same,duration of sense of free and unobstructed airflow / cold sensations,[5]; 0.5 mg or 2 mg powder inhaled via the nose,about 3 hours
same,duration of refreshing sensations,[5]; applied to nasal membranes,up to 3 hours
same,"effect on nasal discharge, urge to sneeze, itchy eyelids",[5],curtailed and terminated
same,coolness in the mouth or throat,[6]; 2 mg in chewing gum,No sensations of coolness
same,onset of general sensations of coolness,"[6]; 2 mg in chewing gum chewed 5 minutes, behind the sternum, epigastric area",12 min
same,duration of cooling effects,"[6]; 2 mg in chewing gum, thoracic/epigastric area",about 45 minutes
same,potency relative to menthol in eliciting ion channel current changes,[7],about 200 times
same,sensation elicited,[8]; 0.1 mg applied to the dorsum of the tongue,prickling sensations of cold
same,sensation elicited,"[8]; ingestion of 6 mg, on one occasion out of three",sensations of coolness on the cheeks and on the inner surfaces of the arms and legs
same,irritation of the eyelid,[9],without acute irritation
same,onset of prickling sensations of cold,[9]; 10 mg/ml in propylene glycol,≤ 10 min
same,duration of cooling/refreshing effect,[9]; menthol crystals,about 45 minutes
same,stability,[10],stable at room temperature
same,"toxicity relative to menthol, by oral median lethal dose",[11],less toxic than menthol
same,solubility in ethanol and acetone,[12],slightly soluble
same,solubility in water,[12],virtually insoluble
same,solubility in organic solvents,"[12]; dimethylsulfoxide, nitromethane, dimethylacetamide and propanediols",readily soluble
"CC1CCC(C(C)C)C(O)C1 (stereo not drawn) [menthol, reference compound]",duration of cooling sensations,[13],15 to 30 min
same,irritation,"[2]; high concentrations, eyes",irritating to the eyes
same,effect on pain and coldness at wound site,[4],did not elicit sensations of coldness or pain reduction
same,duration of cooling effect,[5]; 0.8 mg crystals inhaled,25 to 30 min
same,irritation on nasal inhalation,[5]; inhalation of crystals,initial burning sensation
same,"effect on nasal discharge, urge to sneeze, itchy eyelids",[5],No overt beneficial effects
same,irritation of the eyelid,[9],sharp discomfort
same,duration of cooling/refreshing effect,[9]; menthol crystals,about 15 minutes
same,time until discomfort dissipated,[9]; menthol crystals,about 1 minute
same,solubility in ethanol,[12],soluble
same,solubility in water,[12],slightly soluble
